Paper doi:10.1101/2021.02.09.430557v1 (biorxiv, 2021)

Target: T1, AnHSD (Paenarthrobacter nicotinovorans, UniProt A0ABT9TQY6)
T1 sequence (A0ABT9TQY6 1-348): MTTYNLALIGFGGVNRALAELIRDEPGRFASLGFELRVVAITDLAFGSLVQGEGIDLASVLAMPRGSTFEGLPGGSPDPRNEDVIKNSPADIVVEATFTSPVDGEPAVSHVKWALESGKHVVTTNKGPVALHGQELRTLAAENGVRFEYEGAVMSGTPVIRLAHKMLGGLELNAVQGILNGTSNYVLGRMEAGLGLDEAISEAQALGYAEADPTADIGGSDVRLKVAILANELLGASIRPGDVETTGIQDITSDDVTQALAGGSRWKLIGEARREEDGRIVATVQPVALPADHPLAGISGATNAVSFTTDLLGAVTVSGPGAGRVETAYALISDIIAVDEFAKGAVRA
Experiment: residual L-homoserine oxidation activity, absorbance at […] nm
Format: biochemical
Conditions: read-out: Relative activity (%) at 10 mM

activity at 10000 µM: 76.7 ± 1.53%
SMILES: N[C@@H](CC(=O)O)C(=O)O [L-aspartate]
